Assay results: ChEMBL document CHEMBL3400001, “Tricyclic 1,5-naphthyridinone oxabicyclooctane-linked novel bacterial topoisomerase inhibitors as broad-spectrum antibacterial agents-SAR of left-hand-side moiety (Part-2)” (Bioorg Med Chem Lett, 2015)
≈ marks a conversion by molar mass, not a printed value. Calls of active or inactive are those of the source. The rule behind the calls is not given here.

Legend:
Escherichia coli = assay: Antimicrobial activity against Escherichia coli ATCC 25922 by micro broth dilution or agar based method; assay type: functional; conditions: Escherichia coli, ATCC 25922; read-out: MIC
Haemophilus influenzae = assay: Antimicrobial activity against Haemophilus influenzae ATCC 49247 by micro broth dilution or agar based method; assay type: functional
Enterococcus faecium = assay: Antimicrobial activity against vancomycin-resistant Enterococcus faecium A2373 expressing VanA by micro broth dilution or agar based method; assay type: functional
Staphylococcus aureus [1] = assay: Antimicrobial activity against Staphylococcus aureus Smith by micro broth dilution or agar based method; assay type: functional; conditions: Staphylococcus aureus, Smith; read-out: MIC
Acinetobacter baumannii = assay: Antimicrobial activity against Acinetobacter baumannii IID876 by micro broth dilution or agar based method; assay type: functional
Enterococcus faecalis = assay: Antimicrobial activity against Enterococcus faecalis ATCC 29212 MB by micro broth dilution or agar based method; assay type: functional
Pseudomonas aeruginosa = assay: Antimicrobial activity against Pseudomonas aeruginosa PAO1 by micro broth dilution or agar based method; assay type: functional; conditions: Pseudomonas aeruginosa, PAO1; read-out: MIC
Moraxella catarrhalis = assay: Antimicrobial activity against Moraxella catarrhalis ATCC 25238 by micro broth dilution or agar based method; assay type: functional
Streptococcus pneumoniae = assay: Antimicrobial activity against Streptococcus pneumoniae IID554 by micro broth dilution or agar based method; assay type: functional
[2] = target: T1, Voltage-gated inwardly rectifying potassium channel KCNH2 (Homo sapiens, UniProt Q12809); assay: Inhibition of human ERG by MK499 binding assay
T1 sequence (Q12809 whole entry): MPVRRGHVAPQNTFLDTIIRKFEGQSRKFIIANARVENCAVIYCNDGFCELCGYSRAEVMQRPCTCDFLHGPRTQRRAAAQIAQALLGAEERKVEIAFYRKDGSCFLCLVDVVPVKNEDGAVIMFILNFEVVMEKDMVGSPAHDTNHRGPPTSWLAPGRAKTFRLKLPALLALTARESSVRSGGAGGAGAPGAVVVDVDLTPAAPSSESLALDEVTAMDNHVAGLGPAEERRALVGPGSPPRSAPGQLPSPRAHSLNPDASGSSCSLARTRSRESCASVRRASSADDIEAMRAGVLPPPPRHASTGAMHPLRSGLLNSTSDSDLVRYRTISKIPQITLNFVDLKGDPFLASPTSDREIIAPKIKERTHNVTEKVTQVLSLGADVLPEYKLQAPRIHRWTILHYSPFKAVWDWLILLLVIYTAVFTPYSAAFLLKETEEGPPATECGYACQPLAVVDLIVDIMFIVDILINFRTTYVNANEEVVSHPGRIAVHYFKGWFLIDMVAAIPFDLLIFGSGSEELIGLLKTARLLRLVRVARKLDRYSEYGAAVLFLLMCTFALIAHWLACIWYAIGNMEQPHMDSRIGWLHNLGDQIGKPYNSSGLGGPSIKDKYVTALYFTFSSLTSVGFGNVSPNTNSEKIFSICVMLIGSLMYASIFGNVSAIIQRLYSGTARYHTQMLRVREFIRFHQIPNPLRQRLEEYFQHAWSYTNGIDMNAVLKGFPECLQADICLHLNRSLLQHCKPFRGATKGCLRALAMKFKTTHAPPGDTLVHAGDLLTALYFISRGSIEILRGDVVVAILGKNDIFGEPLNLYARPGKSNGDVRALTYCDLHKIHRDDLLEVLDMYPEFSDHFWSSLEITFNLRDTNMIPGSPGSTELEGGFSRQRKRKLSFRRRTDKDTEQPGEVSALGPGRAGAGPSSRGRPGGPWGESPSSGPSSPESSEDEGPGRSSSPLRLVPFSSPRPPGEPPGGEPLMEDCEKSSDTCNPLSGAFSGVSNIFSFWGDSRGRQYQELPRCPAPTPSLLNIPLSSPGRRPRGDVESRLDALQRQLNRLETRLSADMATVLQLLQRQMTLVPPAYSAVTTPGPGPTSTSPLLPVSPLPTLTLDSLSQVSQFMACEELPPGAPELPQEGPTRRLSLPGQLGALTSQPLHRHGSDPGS

[3] = target: T1, Voltage-gated inwardly rectifying potassium channel KCNH2; assay: Inhibition of human ERG expressed in CHO cells by Patch express assay; assay type: cell-based
Staphylococcus aureus [4] = assay: Ratio of MIC for quinolone-resistant Staphylococcus aureus MS5935 to MIC for quinolone-[…]; assay type: functional
Staphylococcus aureus [5] = assay: Antimicrobial activity against Staphylococcus aureus infected in orally dosed mouse model of bacteremia; assay type: functional; conditions: po
[6] = AUC in C57BL/6 mouse at 1 mg/kg, iv; assay type: ADME, organism-based; design: dose 1 mg/kg, route intravenous; conditions: plasma
[7] = Half life in C57BL/6 mouse at 1 mg/kg, iv or 2 mg/kg, po; assay type: ADME, organism-based; conditions: in vivo
Staphylococcus aureus [8] = assay: Antimicrobial activity against Staphylococcus aureus infected in intravenously dosed mouse model of bacteremia; assay type: functional; conditions: iv
[9] = Volume of distribution at steady state in C57BL/6 mouse at 1 mg/kg, iv or 2 mg/kg, po; assay type: ADME, organism-based; conditions: in vivo, read-out: Vdss
[10] = Plasma clearance in C57BL/6 mouse at 1 mg/kg, iv or 2 mg/kg, po; assay type: ADME, organism-based
[11] = Oral bioavailability in C57BL/6 mouse at 2 mg/kg; assay type: ADME, organism-based; conditions: in vivo
Staphylococcus aureus [12] = assay: Antimicrobial activity against Staphylococcus aureus infected in mouse model of bacteremia at 50 mg/kg, po; assay type: functional, organism-based; design: dose 50 mg/kg
Staphylococcus aureus [13] = assay: Antimicrobial activity against Staphylococcus aureus infected in mouse model of bacteremia at 50 mg/kg, iv; assay type: functional, organism-based; design: dose 50 mg/kg
[14] = Enterococcus faecium, A2373, read-out: MIC
[15] = Acinetobacter baumannii, IID876, read-out: MIC
[16] = Enterococcus faecalis, ATCC 29212 MB, read-out: MIC
[17] = Streptococcus pneumoniae, IID554, read-out: MIC

`COc1ccc2ncc(F)c(C[C@H](O)C34CCC(NCc5ccc6c(n5)NC(=O)CO6)(CC3)CO4)c2n1` gave an MIC (Escherichia coli) of 2 µg/mL (≈ 3.93 µM), an MIC (Haemophilus influenzae) of 0.5 µg/mL (≈ 0.981 µM) and an MIC (Enterococcus faecium; [14]) of 0.5 µg/mL (≈ 0.981 µM). For the same compound, the MIC (Staphylococcus aureus [1]) was 0.02 µg/mL (≈ 0.0393 µM), the MIC (Acinetobacter baumannii; [15]) was 0.5 µg/mL (≈ 0.981 µM) and the MIC (Enterococcus faecalis; [16]) was 0.5 µg/mL (≈ 0.981 µM). For the same compound, the MIC (Pseudomonas aeruginosa) was 8 µg/mL (≈ 15.7 µM), the MIC (Moraxella catarrhalis) was 0.015 µg/mL (≈ 0.0294 µM) and the MIC (Streptococcus pneumoniae; [17]) was 0.05 µg/mL (≈ 0.0981 µM).
In the case of `O=C1COc2ccc(CNC34CCC(CC5Cn6c(=O)ccc7ncc(F)c5c76)(CC3)OC4)nc2N1` (stereo in doubt; 9), the IC50 [2] is reported as 15.2 µM, the MIC (Escherichia coli) is reported as 1 µg/mL (≈ 2.03 µM) and the MIC (Enterococcus faecium) is reported as 1 µg/mL (≈ 2.03 µM). It also gave an IC50 [3] of 15.8 µM, an MIC (Acinetobacter baumannii) of 0.5 µg/mL (≈ 1.02 µM) and an MIC (Enterococcus faecalis) of 0.5 µg/mL (≈ 1.02 µM). The Ratio (Staphylococcus aureus [4]) was under 4, the MIC (Pseudomonas aeruginosa) was 16 µg/mL (≈ 32.6 µM) and the MIC (Streptococcus pneumoniae) was 0.25 µg/mL (≈ 0.509 µM).
In the case of `CO[C@@]1(CC23CCC(NCc4ccc5c(n4)NC(=O)CO5)(CC2)CO3)Cn2c(=O)ccc3ncc(F)c1c32`, the IC50 [2] is reported as 7.3 µM, the MIC (Escherichia coli) is reported as 32 µg/mL (≈ 61.4 µM) and the MIC (Enterococcus faecium; [14]) is reported as 32 µg/mL (≈ 61.4 µM). It also gave an MIC (Staphylococcus aureus [1]) of 4 µg/mL (≈ 7.67 µM), an MIC (Acinetobacter baumannii; [15]) of 16 µg/mL (≈ 30.7 µM) and an MIC (Enterococcus faecalis; [16]) of 8 µg/mL (≈ 15.3 µM). The Ratio (Staphylococcus aureus [4]) was under 4, the MIC (Pseudomonas aeruginosa) was 32 µg/mL (≈ 61.4 µM) and the MIC (Streptococcus pneumoniae; [17]) was 2 µg/mL (≈ 3.83 µM).
`O=C1COc2ccc(CNC34CCC(C[C@]5(O)Cn6c(=O)c(F)cc7ncc(F)c5c76)(CC3)OC4)nc2N1` gave an IC50 [2] of over 60 µM, an MIC (Escherichia coli) of 4 µg/mL (≈ 7.61 µM) and an MIC (Haemophilus influenzae) of 1 µg/mL (≈ 1.9 µM). The MIC (Enterococcus faecium; [14]) was 4 µg/mL (≈ 7.61 µM), the MIC (Staphylococcus aureus [1]) was 0.25 µg/mL (≈ 0.476 µM) and the MIC (Acinetobacter baumannii; [15]) was 4 µg/mL (≈ 7.61 µM). The MIC (Enterococcus faecalis; [16]) was 2 µg/mL (≈ 3.81 µM), the Ratio (Staphylococcus aureus [4]) was under 4 and the MIC (Pseudomonas aeruginosa) was 16 µg/mL (≈ 30.4 µM). For the same compound, the MIC (Moraxella catarrhalis) was 0.25 µg/mL (≈ 0.476 µM) and the MIC (Streptococcus pneumoniae; [17]) was 0.5 µg/mL (≈ 0.951 µM).
Compound `O=C1COc2ccc(CNC34CCC(CC5(O)Cn6c(=O)c(Cl)cc7ncc(F)c5c76)(CC3)OC4)nc2N1` (racemic) has an IC50 [2] of over 60 µM, an MIC (Escherichia coli) of 16 µg/mL (≈ 29.5 µM) and an MIC (Haemophilus influenzae) of 8 µg/mL (≈ 14.8 µM). The MIC (Enterococcus faecium; [14]) was 32 µg/mL (≈ 59 µM), the MIC (Staphylococcus aureus [1]) was 2 µg/mL (≈ 3.69 µM) and the MIC (Acinetobacter baumannii; [15]) was 16 µg/mL (≈ 29.5 µM). The MIC (Enterococcus faecalis; [16]) was 8 µg/mL (≈ 14.8 µM), the Ratio (Staphylococcus aureus [4]) was under 4 and the MIC (Pseudomonas aeruginosa) was 32 µg/mL (≈ 59 µM). The MIC (Moraxella catarrhalis) was 2 µg/mL (≈ 3.69 µM) and the MIC (Streptococcus pneumoniae; [17]) was 2 µg/mL (≈ 3.69 µM).
Work on `COc1cnc2ccc(=O)n3c2c1[C@@](O)(CC12CCC(NCc4ccc5c(n4)NC(=O)CO5)(CC1)CO2)C3` yielded an MIC (Escherichia coli) of 32 µg/mL (≈ 61.6 µM), an MIC (Enterococcus faecium; [14]) of 32 µg/mL (≈ 61.6 µM) and an MIC (Staphylococcus aureus [1]) of 8 µg/mL (≈ 15.4 µM). It also gave an MIC (Acinetobacter baumannii; [15]) of 32 µg/mL (≈ 61.6 µM), an MIC (Enterococcus faecalis; [16]) of 32 µg/mL (≈ 61.6 µM) and an MIC (Pseudomonas aeruginosa) of 32 µg/mL (≈ 61.6 µM). For the same compound, the MIC (Streptococcus pneumoniae; [17]) was 32 µg/mL (≈ 61.6 µM).
`O=C1COc2ccc(CNC34CCC(C[C@]5(O)Cn6c(=O)ccc7ncc(F)c5c76)(CC3)OC4)nc2N1` gave an MIC (Escherichia coli) of 4 µg/mL (≈ 7.88 µM), an MIC (Haemophilus influenzae) of 1 µg/mL (≈ 1.97 µM) and an MIC (Enterococcus faecium; [14]) of 8 µg/mL (≈ 15.8 µM). The MIC (Staphylococcus aureus [1]) was 0.25 µg/mL (≈ 0.493 µM), the ED50 (Staphylococcus aureus [5]) was 27 mg/kg and the AUC [6] was 0.45 µM·h. It also gave an MIC (Acinetobacter baumannii; [15]) of 2 µg/mL (≈ 3.94 µM), an MIC (Enterococcus faecalis; [16]) of 4 µg/mL (≈ 7.88 µM) and a half-life [7] of 4 h. It also gave an MIC (Pseudomonas aeruginosa) of 16 µg/mL (≈ 31.5 µM), an ED50 (Staphylococcus aureus [8]) of under 3.2 mg/kg and an MIC (Moraxella catarrhalis) of 0.25 µg/mL (≈ 0.493 µM). It also gave a Vd [9] of 11.8 L/kg, a clearance [10] of 65 mL/min/kg and an MIC (Streptococcus pneumoniae; [17]) of 0.25 µg/mL (≈ 0.493 µM). The bioavailability [11] was 40%.
`O=C1COc2ccc(CNC34CCC(C[C@]5(O)Cn6c(=O)ccc7nc(Cl)c(F)c5c76)(CC3)OC4)nc2N1` gave an MIC (Escherichia coli) of 32 µg/mL (≈ 59 µM), an MIC (Enterococcus faecium; [14]) of 32 µg/mL (≈ 59 µM) and an MIC (Staphylococcus aureus [1]) of 4 µg/mL (≈ 7.38 µM). It also gave an MIC (Acinetobacter baumannii; [15]) of 32 µg/mL (≈ 59 µM), an MIC (Enterococcus faecalis; [16]) of 16 µg/mL (≈ 29.5 µM) and an MIC (Pseudomonas aeruginosa) of 32 µg/mL (≈ 59 µM). It also gave an MIC (Moraxella catarrhalis) of 4 µg/mL (≈ 7.38 µM) and an MIC (Streptococcus pneumoniae; [17]) of 8 µg/mL (≈ 14.8 µM).
`COc1cnc2ccc(=O)n3c2c1[C@](O)(CC12CCC(NCc4ccc5c(n4)NC(=O)CO5)(CC1)CO2)C3` showed an MIC (Escherichia coli) of 32 µg/mL (≈ 61.6 µM), an MIC (Enterococcus faecium; [14]) of 32 µg/mL (≈ 61.6 µM) and an MIC (Staphylococcus aureus [1]) of 8 µg/mL (≈ 15.4 µM). The MIC (Acinetobacter baumannii; [15]) was 32 µg/mL (≈ 61.6 µM), the MIC (Enterococcus faecalis; [16]) was 32 µg/mL (≈ 61.6 µM) and the MIC (Pseudomonas aeruginosa) was 32 µg/mL (≈ 61.6 µM). It also gave an MIC (Streptococcus pneumoniae; [17]) of 8 µg/mL (≈ 15.4 µM).
`O=C1COc2ccc(CNC34CCC(C[C@]5(O)CN6C(=O)CCc7ncc(F)c5c76)(CC3)OC4)nc2N1` gave an IC50 [2] of over 60 µM, an MIC (Escherichia coli) of 32 µg/mL (≈ 62.8 µM) and an MIC (Enterococcus faecium; [14]) of 32 µg/mL (≈ 62.8 µM). For the same compound, the MIC (Staphylococcus aureus [1]) was 8 µg/mL (≈ 15.7 µM), the MIC (Acinetobacter baumannii; [15]) was 32 µg/mL (≈ 62.8 µM) and the MIC (Enterococcus faecalis; [16]) was 16 µg/mL (≈ 31.4 µM). The Ratio (Staphylococcus aureus [4]) was under 4, the MIC (Pseudomonas aeruginosa) was 32 µg/mL (≈ 62.8 µM) and the MIC (Streptococcus pneumoniae; [17]) was 8 µg/mL (≈ 15.7 µM).
For `O=C1COc2ccc(CNC34CCC(C[C@@]5(O)Cn6c(=O)ccc7ncc(F)c5c76)(CC3)OC4)nc2N1`, the MIC (Escherichia coli) was 16 µg/mL (≈ 31.5 µM), the MIC (Enterococcus faecium; [14]) was 32 µg/mL (≈ 63.1 µM) and the MIC (Staphylococcus aureus [1]) was 2 µg/mL (≈ 3.94 µM). The Activity (Staphylococcus aureus [12]) was “inactive”, the MIC (Acinetobacter baumannii; [15]) was 32 µg/mL (≈ 63.1 µM) and the MIC (Enterococcus faecalis; [16]) was 8 µg/mL (≈ 15.8 µM). For the same compound, the Activity (Staphylococcus aureus [13]) was “inactive”, the MIC (Pseudomonas aeruginosa) was 32 µg/mL (≈ 63.1 µM) and the MIC (Streptococcus pneumoniae; [17]) was 4 µg/mL (≈ 7.88 µM).
